Reference: patent publication US20250188085A1, “COMPOSITIONS AND METHODS FOR INHIBITION OF RAS” (THERAS, INC., priority 2022, published 2025)
Read-outs that look alike come from different tables or passages of the source.

How the values were obtained:
pERK in NCI-H358 cells = assay: Cell-based pERK HTRF assay; conditions: 30 min incubation, read-out: pERK in NCI-H358 cell inhibition IC50
Method in brief: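 Cells seeded at 4×10^4/well in RPMI with 10% FBS, then next day treated for 30 min with a 9-point, 3-fold series from 75 μM top concentration at 0.25% DMSO. Lysates were read for pERK by HTRF (d2/Eu cryptate antibodies) after 4–24 h at room temperature, emission at 615 nm.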

[1] = molecular target: T1, Avi-KRAS G12C (1-169) GppNHp/RAF1 RBD-3×FLAG (52-151) (Homo sapiens, UniProt P01116, G12C); assay: Raf1 RBD-KRAS G12C-GppNHp disruption (protein:protein interaction HTRF assay); type: biochemical
T1 construct: Avi-KRAS G12C (1-169) GppNHp/RAF1 RBD-3×FLAG (52-151)
Method in brief: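 HTRF measuring disruption of 50 nM Avi-KRAS G12C (1-169) loaded with GppNHp binding RAF1 RBD-3×FLAG (52-151), in pH 7.5 Tris buffer with 5 mM MgCl2, 0.1% BSA, 10% DMSO. KRAS preincubated with compound 1 h, then RBD 1 h, then detection reagents 1 h, all at room temperature. Compound titration 30-0.02 μM; activity expressed as percent of DMSO control.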

[2] = molecular target: T2, GDP-loaded KRAS4b (amino acids 1-169) G12C/C118S protein (Homo sapiens, UniProt P01116, C118S/G12C); assay: Covalent cysteine 12 modification by MALDI-TOF MS, GDP-loaded KRAS G12C; type: binding; conditions: 15 minutes reaction time point
T2 construct: KRAS4b (amino acids 1-169) G12C/C118S protein; made in house
Method in brief: (§1)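 KRAS4b 1-169 G12C/C118S loaded with GDP, GppNHp or GTP was used at 1 μM in 20 mM HEPES, 150 mM NaCl, 1 mM MgCl2, pH 7.3, and incubated with compound (5 mM DMSO stock) at room temperature in the dark. % modification at 15 min is adduct peak height over total protein peak heights by linear-mode MALDI-TOF.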

[3] = molecular target: T3, GppNHp-loaded KRAS4b (amino acids 1-169) G12C/C118S protein (Homo sapiens, UniProt P01116, C118S/G12C); assay: Covalent cysteine 12 modification by MALDI-TOF MS, GppNHp-loaded KRAS G12C; type: binding; conditions: 15 minutes reaction time point
T3 construct: KRAS4b (amino acids 1-169) G12C/C118S protein; made in house
Method in brief: as §1

[4] = molecular target: T4, GTP-loaded KRAS4b (amino acids 1-169) G12C/C118S protein (Homo sapiens, UniProt P01116, C118S/G12C); assay: Covalent cysteine 12 modification by MALDI-TOF MS, GTP-loaded KRAS G12C; type: binding; conditions: 15 minutes reaction time point
T4 construct: KRAS4b (amino acids 1-169) G12C/C118S protein; made in house
Method: Reaction: 1 μM of GppNHp-, GTP-, or GDP-loaded KRAS4b (amino acids 1-169) G12C/C118S protein (produced in-house by Protein Expression Laboratory, FNLCR/Leidos Biomed) in 20 mM 4-(2-hydroxyethyl)-1-piperazineethanesulfonic acid (HEPES) buffer containing 150 mM NaCl, 1 mM MgCl2, pH 7.3 was prepared freshly before assay. Ten-μL aliquots of protein were dispensed onto low volume 384-well plate, then 375 nL DMSO, and 25 nL of tested compounds from 5 mM DMSO stocks were added to appropriate wells using ECHO 555 acoustic liquid handler (Labcyte Inc.). For each reaction/assay, three blanks were prepared by mixing 10 μL of protein solution with 400 nL DMSO. The contents of the wells were carefully mixed by aspiration, and then each plate was sealed with an adhesive cover, centrifuged at 2000 g for 1 minute, and kept in the dark at room temperature until 5 min, 15 min, 30 min, or 2 h collections.
Target pretreatment: Before each assay MALDI target (Bruker MPT 384 ground steel BC) was pre-treated by pipetting on each spot 0.75 μL of saturated sinapinic acid in acetonitrile (ACN).
Sample preparation: At collection time point, 2 μL of reaction mixtures were pipetted out into 20 μL MALDI matrix solution (saturated solution of sinapinic acid in 1:1 ACN:water solution containing 0.75% trifluoroacetic acid (TFA)) deposited on 384 well polypropylene plate. Resulting solution was mixed by aspiration, centrifuged at 2000 g for 1 minute, then 1 μL aliquots were dispensed on pre-treated MALDI target using Beckman Coulter Biomek FXP 96/384-Span-8 Laboratory Automation Workstation. Finally, the MALDI target was dried under mild vacuum to produce spots with fine crystalline structure.
Measurements: MALDI-TOF measurements were performed on a Bruker Daltonics rapiflex Tissuetyper TOF-TOF mass spectrometer using linear mode and mass range from 18.6 to 21.6 kDa. Detector gain was set to 3.3× (483 V), sample rate to 5 GS/s, real time smoothing to medium (175 MHz), laser smart beam pattern was set to: “MS Thin Layer M5”, and the laser frequency was 10000 Hz. Spectra were automatically collected using custom Auto Xecute method. Laser power was auto adjusted using fuzzy control. The peak selection range was set to be between 19000 and 21500 Da. Peak evaluation uses half width parameter set to be smaller than 40 Da for processed spectrograms (centroid peak detection; smoothed by SavitzkyGolay algorithm using 7 m/z width and 2 cycles; baseline was subtracted using median algorithm with flatness 1 and median level 0.01). Fuzzy control used Proteins/Oligonucleotides protocol with minimum half width 1/10 times above threshold. Up to 40000 satisfactory shots were collected in 10000 shot steps. Dynamic termination was implemented to finish data collection when peak signal/noise ratio was reaching value of 50.
Spectra processing: Spectra were smoothed by SavitzkyGolay algorithm using 7 m/z width and three cycles. Centroid peak detection algorithm was used with signal to noise threshold set to 6, relative intensity threshold 4%, peak width 10 m/z and median baseline subtraction using flatness of 1 and median level of 0.01. Peak intensity and area under the peak were evaluated and recorded for all peaks between 19,300 Da and 21,550 Da.
Calculation of percent modification: Percent modification was calculated as a ratio of peak height for protein modified by compound to sum of peak height of remaining protein plus peak height for protein modified by compound. If multiple modifications were observed each was calculated as a ratio of peak height for given modification versus sum of peak heights for all observed protein species. Data reported in Table 5 are from 15 minutes reaction time point.

| SMILES | IC50 (pERK in NCI-H358 cells) [nM] | IC50 [1] [nM] | GDP-KRAS G12C percent of modification [2] | GppNHp-KRAS G12C percent of modification [3] | GTP-KRAS G12C percent of modification [4] | IC50 (pERK in NCI-H358 cells; Homo sapiens, NCI-H358, 0.5 h) [nM] |
| --- | --- | --- | --- | --- | --- | --- |
| C=CC(=O)N1CC[C@@H](Oc2nc(OC[C@@]34CCCN3C[C@H](F)C4)nc3c(F)c(-c4ccc(F)c5sc(N)c(C#N)c45)c(C(F)(F)F)cc23)[C@H]1COC (atropisomer, axis not shown) [Compound 95] | – | ≤ 500 | A (percent of modification ≥70%) | A (percent of modification ≥70%) | A (percent of modification ≥70%) | ≤ 100 |
| C=CC(=O)N1CC[C@@H](Oc2nc(OC[C@@]34CCCN3C[C@H](F)C4)nc3c(F)c(-c4ccc(F)c5sc(N)c(C#N)c45)c(C(F)(F)F)cc23)[C@H]1COC (atropisomer, axis not shown) [Compound 96] | 100 to 1000 | 5000 to 20000 | D (percent of modification <10%) | D (percent of modification <10%) | D (percent of modification <10%) | – |
| C=CC(=O)N1CC[C@@H](Oc2nc(OC[C@@]34CCCN3C[C@H](F)C4)nc3c(F)c(-c4ccc(F)c5sc(N)c(C#N)c45)c(C(F)(F)F)cc23)[C@H]1C (single isomer, unassigned) [Compound 64] | > 1000 | > 20000 | D (percent of modification <10%) | D (percent of modification <10%) | D (percent of modification <10%) | – |
| C=CC(=O)N1CCC(Oc2nc(OC[C@@]34CCCN3C[C@H](F)C4)nc3c(F)c(-c4ccc(F)c5sc(N)nc45)c(C(F)(F)F)cc23)C1(C)C (some centres unmarked) [Compound 45] | – | ≤ 500 | B (50≤percent of modification <70%) | C (10%≤modification <50%) | C (10%≤modification <50%) | ≤ 100 |
| C=CC(=O)N1C[C@@H](F)[C@@H](Oc2nc(OC[C@@]34CCCN3C[C@H](F)C4)nc3cc(-c4ccc(F)c5sc(N)c(C#N)c45)c(C(F)(F)F)cc23)C1 [Compound 50] | – | ≤ 500 | B (50≤percent of modification <70%) | A (percent of modification ≥70%) | B (50≤percent of modification <70%) | ≤ 100 |
| C=CC(=O)N1CC[C@@H](Oc2nc(OC[C@@]34CCCN3C[C@H](F)C4)nc3c(F)c(-c4ccc(F)c5sc(N)c(C#N)c45)ccc23)C1 [Compound 51] | – | ≤ 500 | A (percent of modification ≥70%) | A (percent of modification ≥70%) | A (percent of modification ≥70%) | ≤ 100 |
| C=CC(=O)N1CC[C@@H](Oc2nc(OC[C@@]34CCCN3C[C@H](F)C4)nc3c(F)c(-c4ccc(F)c5sc(N)c(C#N)c45)c(F)cc23)C1 [Compound 52] | – | 5000 to 20000 | D (percent of modification <10%) | D (percent of modification <10%) | D (percent of modification <10%) | > 1000 |
| C=CC(=O)N1CC[C@@H](Oc2nc(OC[C@@]34CCCN3C[C@H](F)C4)nc3cc(-c4ccc(F)c5sc(N)c(C#N)c45)c(C(F)(F)F)nc23)C1 [Compound 55, 4-(4-(((R)-1-acryloylpyrrolidin-3-yl)oxy)-2-(((2R,7aS)-2-fluorotetrahydro-1H-pyrrolizin-7a (5H)-yl)methoxy)-6-(trifluoromethyl)pyrido[3,2-d]pyrimidin-7-yl)-2-amino-7-fluorobenzo[b]thiophene-3-carbonitrile] | – | ≤ 500 | C (10%≤modification <50%) | C (10%≤modification <50%) | D (percent of modification <10%) | ≤ 100 |

More lines, now with the values ahead:

| IC50 (pERK in NCI-H358 cells) [nM] | IC50 [1] [nM] | GDP-KRAS G12C percent of modification [2] | GppNHp-KRAS G12C percent of modification [3] | GTP-KRAS G12C percent of modification [4] | IC50 (pERK in NCI-H358 cells; Homo sapiens, NCI-H358, 0.5 h) [nM] | SMILES |
| --- | --- | --- | --- | --- | --- | --- |
| > 1000 | > 20000 | D (percent of modification <10%) | D (percent of modification <10%) | D (percent of modification <10%) | – | C=CC(=O)N1C[C@H](Oc2nc(OC[C@@]34CCCN3C[C@H](F)C4)nc3c(F)c(-c4ccc(F)c5sc(N)c(C#N)c45)c(C(F)(F)F)cc23)C[C@H]1COC (atropisomer, axis not shown) [Compound 90] |
| ≤ 100 | ≤ 500 | A (percent of modification ≥70%) | A (percent of modification ≥70%) | A (percent of modification ≥70%) | – | C=CC(=O)N1CC[C@@H](Oc2nc(OC[C@@]34CCCN3C[C@H](F)C4)nc3c(F)c(-c4ccc(F)c5sc(N)c(C#N)c45)c(C(F)(F)F)cc23)[C@H]1C (single isomer, unassigned) [Compound 63] |
| – | ≤ 500 | B (50≤percent of modification <70%) | B (50≤percent of modification <70%) | B (50≤percent of modification <70%) | ≤ 100 | C=CC(=O)N1CC[C@@H](Oc2nc(OC[C@@]34CCCN3C[C@H](F)C4)nc3c(F)c(-c4ccc(F)c5sc(N)c(C#N)c45)c(C(F)(F)F)cc23)C1 [Compound 46] |
| – | ≤ 500 | C (10%≤modification <50%) | B (50≤percent of modification <70%) | C (10%≤modification <50%) | ≤ 100 | C=CC(=O)N1C[C@H](Oc2nc(OC[C@@]34CCCN3C[C@H](F)C4)nc3cc(-c4ccc(F)c5sc(N)c(C#N)c45)c(C(F)(F)F)cc23)[C@@H](F)C1 [Compound 49] |
| – | ≤ 500 | A (percent of modification ≥70%) | A (percent of modification ≥70%) | B (50≤percent of modification <70%) | ≤ 100 | C=CC(=O)N1CC[C@@H](Oc2nc(OC[C@@]34CCCN3C[C@H](F)C4)nc3c(F)c(-c4ccc(F)c5sc(N)c(C#N)c45)ncc23)C1 [Compound 56] |
